# Test results: ChEMBL document CHEMBL1156805, “Development of (S)-N6-(2-(4-(isoquinolin-1-yl)piperazin-1-yl)ethyl)-N6-propyl-4,5,6,7-tetrahydrobenzo[d]-thiazole-2,6-diamine and its analogue as a D3 receptor preferring agonist: potent in vivo activity in Parkinson's disease animal models” (J Med Chem, 2010)
# What was measured:
# D(3) dopamine receptor [1] = target: T1, D(3) dopamine receptor (Rattus norvegicus, UniProt P19020); assay: biochemical
# D(2) dopamine receptor [2] = target: D(2) dopamine receptor (Rattus norvegicus, UniProt P61169); assay: biochemical
# Chain of D(2) dopamine receptor (Rattus norvegicus, UniProt P61169) (P61169 whole entry): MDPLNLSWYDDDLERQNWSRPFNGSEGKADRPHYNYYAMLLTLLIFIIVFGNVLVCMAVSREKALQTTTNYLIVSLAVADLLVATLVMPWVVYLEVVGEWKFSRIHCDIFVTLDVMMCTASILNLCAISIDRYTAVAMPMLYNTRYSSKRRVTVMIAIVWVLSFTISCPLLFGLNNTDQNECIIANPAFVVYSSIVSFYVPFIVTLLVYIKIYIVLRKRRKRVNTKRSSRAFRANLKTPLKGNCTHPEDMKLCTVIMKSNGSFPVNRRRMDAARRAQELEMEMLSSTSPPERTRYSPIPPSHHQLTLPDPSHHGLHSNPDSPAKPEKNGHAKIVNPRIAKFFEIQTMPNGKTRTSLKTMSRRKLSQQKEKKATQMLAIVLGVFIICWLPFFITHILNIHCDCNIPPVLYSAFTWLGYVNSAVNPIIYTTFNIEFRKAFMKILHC
# D(3) dopamine receptor [3] = target: T2, D(3) dopamine receptor (Homo sapiens, UniProt P35462); assay: biochemical
# T2 sequence (P35462 whole entry): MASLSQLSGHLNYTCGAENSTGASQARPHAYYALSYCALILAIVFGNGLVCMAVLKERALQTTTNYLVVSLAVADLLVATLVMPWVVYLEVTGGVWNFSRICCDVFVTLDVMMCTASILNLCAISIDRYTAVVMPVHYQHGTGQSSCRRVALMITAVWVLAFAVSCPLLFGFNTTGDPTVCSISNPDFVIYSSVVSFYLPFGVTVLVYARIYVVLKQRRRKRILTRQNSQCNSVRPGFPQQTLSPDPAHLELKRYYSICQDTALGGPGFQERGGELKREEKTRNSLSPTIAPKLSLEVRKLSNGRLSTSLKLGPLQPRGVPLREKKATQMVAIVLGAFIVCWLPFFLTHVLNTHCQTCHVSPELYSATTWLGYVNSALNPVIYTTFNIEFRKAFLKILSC
# D(2) dopamine receptor [4] = target: T3, D(2) dopamine receptor (Homo sapiens, UniProt P14416)
# T3 sequence (P14416 whole entry): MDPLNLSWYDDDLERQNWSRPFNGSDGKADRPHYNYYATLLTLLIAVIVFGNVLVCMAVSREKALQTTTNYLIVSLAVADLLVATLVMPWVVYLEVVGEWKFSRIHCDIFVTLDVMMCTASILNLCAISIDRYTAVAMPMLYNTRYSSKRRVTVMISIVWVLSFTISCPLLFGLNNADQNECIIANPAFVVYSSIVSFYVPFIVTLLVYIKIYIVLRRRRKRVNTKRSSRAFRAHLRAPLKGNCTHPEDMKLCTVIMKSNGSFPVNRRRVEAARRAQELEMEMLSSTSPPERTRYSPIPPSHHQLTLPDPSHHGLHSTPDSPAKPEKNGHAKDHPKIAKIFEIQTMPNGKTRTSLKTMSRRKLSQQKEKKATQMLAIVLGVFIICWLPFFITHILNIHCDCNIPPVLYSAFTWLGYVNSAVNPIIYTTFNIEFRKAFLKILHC
# [5] = system: Radical scavenging activity
# Description: Antioxidant activity assessed as DPPH radical scavenging activity
# D(3) dopamine receptor [6] = target: T2, D(3) dopamine receptor
# D(2) dopamine receptor [7] = target: T3, D(2) dopamine receptor; assay: biochemical
# D(2) dopamine receptor [8] = target: T3, D(2) dopamine receptor; assay: Agonist activity at human dopamine D2L receptor expressed in CHO cells assessed as stimulation of [35S]GTPgamma binding relative to 1 mM dopamine; assay type: functional, cell-based
# D(3) dopamine receptor [9] = target: T1, D(3) dopamine receptor
# T1 sequence (P19020 whole entry): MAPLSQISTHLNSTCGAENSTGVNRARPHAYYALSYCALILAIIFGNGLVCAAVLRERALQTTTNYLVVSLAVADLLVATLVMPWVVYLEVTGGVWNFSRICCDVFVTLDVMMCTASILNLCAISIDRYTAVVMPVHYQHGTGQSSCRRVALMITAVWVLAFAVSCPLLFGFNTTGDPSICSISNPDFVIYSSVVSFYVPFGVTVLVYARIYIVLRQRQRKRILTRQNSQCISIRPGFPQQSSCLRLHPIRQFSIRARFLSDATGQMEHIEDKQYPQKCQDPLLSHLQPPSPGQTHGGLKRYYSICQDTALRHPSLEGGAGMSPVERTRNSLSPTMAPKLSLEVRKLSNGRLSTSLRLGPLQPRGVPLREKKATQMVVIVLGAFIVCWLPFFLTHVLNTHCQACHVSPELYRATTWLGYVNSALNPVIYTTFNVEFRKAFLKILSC
structure (smiles),measurement,setting,value
CCCN(CCN1CCN(c2nccc3ccccc23)CC1)[C@H]1CCc2nc(N)sc2C1,Ki,D(3) dopamine receptor [1],2.23 nM
same,Ki,D(2) dopamine receptor [2],269 nM
same,EC50,D(3) dopamine receptor [3],0.52 nM
same,EC50,D(2) dopamine receptor [4],116 nM
same,IC50,[5],45.7 µM
CCCN(CCN1CCN(c2ccc(-c3ccncc3)cc2)CC1)[C@H]1CCc2nc(N)sc2C1,Ki,D(2) dopamine receptor [2],270 nM
CCCN(CCN1CCN(c2ccnc3ccccc23)CC1)C1CCc2ccc(O)cc2C1 (stereo not given),Ki,D(3) dopamine receptor [1],2.65 nM
same,Ki,D(2) dopamine receptor [2],7.08 nM
CCCN(CCN1CCN(c2cccc3ccccc23)CC1)C1CCc2ccc(O)cc2C1 (stereo not given),Ki,D(2) dopamine receptor [2],13.5 nM
CCCN(CCN1CCN(c2ccc(-c3ccccc3)cc2)CC1)[C@H]1CCc2nc(N)sc2C1,EC50,D(3) dopamine receptor [6],0.085 nM
same,EC50,D(2) dopamine receptor [4],19.9 nM
CCCN(CCC)CCc1cccc2c1CC(=O)N2 [ROPINIROLE],EC50,D(2) dopamine receptor [7],304 nM
CCCN(CCN1CCN(c2ccnc3ccccc23)CC1)[C@H]1CCc2nc(N)sc2C1,Emax,D(2) dopamine receptor [8],118%
same,Ki,D(2) dopamine receptor [2],109 nM
same,EC50,D(2) dopamine receptor [7],77.2 nM
same,EC50,D(3) dopamine receptor [3],0.493 nM
CCCN(CCN1CCN(c2cccc3ncccc23)CC1)[C@H]1CCc2nc(N)sc2C1,Emax,D(2) dopamine receptor [8],104%
same,Ki,D(2) dopamine receptor [2],57.7 nM
same,EC50,D(2) dopamine receptor [7],13.5 nM
same,EC50,D(3) dopamine receptor [3],0.528 nM
same,IC50,[5],39.7 µM
CCCN(CCN1CCN(c2cccc3ncccc23)CC1)C1CCc2ccc(O)cc2C1 (stereo not given),Ki,D(2) dopamine receptor [2],5.22 nM
CCCN(CCN1CCN(c2nccc3ccccc23)CC1)C1CCc2ccc(O)cc2C1 (stereo not given),Ki,D(2) dopamine receptor [2],21.7 nM
CCCN(CCN1CCN(C(=O)c2cc3ccccc3[nH]2)CC1)[C@H]1CCc2c(O)cccc2C1,Ki,D(3) dopamine receptor [9],0.57 nM
CCCN(CCN1CCN(c2ccc3ccccc3c2)CC1)C1CCc2ccc(O)cc2C1 (stereo not given),Ki,D(2) dopamine receptor [2],8.85 nM
